Data taken from ChEMBL document CHEMBL1201861, “Genomics of Drug Sensitity in Cancer screening data, Wellcome Trust Sanger Institute”.
Structures can show the parent of a compound that is named as a salt.

Key:
Assay in all cases: cells
Assay type in all cases: functional, cell-based, Homo sapiens
NCI-H727 = conditions: Homo sapiens, NCI-H727
Description: SANGER: Inhibition of human NCI-H727 cell growth in a cell viability assay.

EFM-19 = conditions: Homo sapiens, EFM-19
Description: SANGER: Inhibition of human EFM-19 cell growth in a cell viability assay.

8305C = conditions: Homo sapiens, 8305C
Description: SANGER: Inhibition of human 8305C cell growth in a cell viability assay.

NCI-H1693 = conditions: Homo sapiens, NCI-H1693
Description: SANGER: Inhibition of human NCI-H1693 cell growth in a cell viability assay.

SW1710 = conditions: Homo sapiens, SW1710
Description: SANGER: Inhibition of human SW1710 cell growth in a cell viability assay.

KYSE-180 = conditions: Homo sapiens, KYSE-180
Description: SANGER: Inhibition of human KYSE-180 cell growth in a cell viability assay.

HOS = conditions: Homo sapiens, HOS
Description: SANGER: Inhibition of human HOS cell growth in a cell viability assay.

NCI-H1437 = conditions: Homo sapiens, NCI-H1437
Description: SANGER: Inhibition of human NCI-H1437 cell growth in a cell viability assay.

RMG-I = conditions: Homo sapiens, RMG-I
Description: SANGER: Inhibition of human RMG-I cell growth in a cell viability assay.

SBC-5 = conditions: Homo sapiens, SBC-5
Description: SANGER: Inhibition of human SBC-5 cell growth in a cell viability assay.

NCI-H1651 = conditions: Homo sapiens, NCI-H1651
Description: SANGER: Inhibition of human NCI-H1651 cell growth in a cell viability assay.

DOK = conditions: Homo sapiens, DOK
Description: SANGER: Inhibition of human DOK cell growth in a cell viability assay.

IGR-1 = conditions: Homo sapiens, IGR-1
Description: SANGER: Inhibition of human IGR-1 cell growth in a cell viability assay.

A 172 = conditions: Homo sapiens, A 172
Description: SANGER: Inhibition of human A172 cell growth in a cell viability assay.

BXPC-3 = conditions: Homo sapiens, BXPC-3
Description: SANGER: Inhibition of human BxPC-3 cell growth in a cell viability assay.

NCI-H460 = conditions: Homo sapiens, NCI-H460
Description: SANGER: Inhibition of human NCI-H460 cell growth in a cell viability assay.

NCI-H1963 = conditions: Homo sapiens, NCI-H1963
Description: SANGER: Inhibition of human NCI-H1963 cell growth in a cell viability assay.

NCI-H2347 = conditions: Homo sapiens, NCI-H2347
Description: SANGER: Inhibition of human NCI-H2347 cell growth in a cell viability assay.

KYSE-450 = conditions: Homo sapiens, KYSE-450
Description: SANGER: Inhibition of human KYSE-450 cell growth in a cell viability assay.

HGC-27 = conditions: Homo sapiens, HGC-27
Description: SANGER: Inhibition of human HGC-27 cell growth in a cell viability assay.

OVCAR-5 = conditions: Homo sapiens, OVCAR-5
Description: SANGER: Inhibition of human OVCAR-5 cell growth in a cell viability assay.

HCC1599 = conditions: Homo sapiens, HCC1599
Description: SANGER: Inhibition of human HCC1599 cell growth in a cell viability assay.

5637 = conditions: Homo sapiens
Description: SANGER: Inhibition of human 5637 cell growth in a cell viability assay.

HT-29 = conditions: Homo sapiens, HT-29
Description: SANGER: Inhibition of human HT-29 cell growth in a cell viability assay.

SK-MES-1 = conditions: Homo sapiens, SK-MES-1
Description: SANGER: Inhibition of human SK-MES-1 cell growth in a cell viability assay.

NCI-H2228 = conditions: Homo sapiens, NCI-H2228
Description: SANGER: Inhibition of human NCI-H2228 cell growth in a cell viability assay.

MHH-ES-1 = conditions: Homo sapiens, MHH-ES-1
Description: SANGER: Inhibition of human MHH-ES-1 cell growth in a cell viability assay.

SW1463 = conditions: Homo sapiens, SW1463
Description: SANGER: Inhibition of human SW1463 cell growth in a cell viability assay.

CAL-72 = conditions: Homo sapiens, CAL-72
Description: SANGER: Inhibition of human CAL-72 cell growth in a cell viability assay.

HT-1080 = conditions: Homo sapiens, HT-1080
Description: SANGER: Inhibition of human HT-1080 cell growth in a cell viability assay.

LB647-SCLC = conditions: Homo sapiens, LB647-SCLC
Description: SANGER: Inhibition of human LB647-SCLC cell growth in a cell viability assay.

LK-2 = conditions: Homo sapiens, LK-2
Description: SANGER: Inhibition of human LK-2 cell growth in a cell viability assay.

VMRC-RCZ = conditions: Homo sapiens, VMRC-RCZ
Description: SANGER: Inhibition of human VMRC-RCZ cell growth in a cell viability assay.

DBTRG-05MG = conditions: Homo sapiens, DBTRG-05MG
Description: SANGER: Inhibition of human DBTRG-05MG cell growth in a cell viability assay.

SCC-3 = conditions: Homo sapiens, SCC-3
Description: SANGER: Inhibition of human SCC-3 cell growth in a cell viability assay.

HSC-3 = conditions: Homo sapiens, HSC-3
Description: SANGER: Inhibition of human HSC-3 cell growth in a cell viability assay.

MDA-MB-415 = conditions: Homo sapiens, MDA-MB-415
SiHa = conditions: Homo sapiens, SiHa
Description: SANGER: Inhibition of human SiHa cell growth in a cell viability assay.

SIG-M5 = conditions: Homo sapiens, SIG-M5
Description: SANGER: Inhibition of human SIG-M5 cell growth in a cell viability assay.

SNU-423 = conditions: Homo sapiens, SNU-423
Description: SANGER: Inhibition of human SNU-423 cell growth in a cell viability assay.

EFO-21 = conditions: Homo sapiens, EFO-21
Description: SANGER: Inhibition of human EFO-21 cell growth in a cell viability assay.

MG-63 = conditions: Homo sapiens, MG-63
Description: SANGER: Inhibition of human MG-63 cell growth in a cell viability assay.

MFE-280 = conditions: Homo sapiens, MFE-280
Description: SANGER: Inhibition of human MFE-280 cell growth in a cell viability assay.

YAPC = conditions: Homo sapiens, YAPC
Description: SANGER: Inhibition of human YAPC cell growth in a cell viability assay.

## CCC/C=C/C=C/C(=O)O[C@H]1/C(=C/C(=O)OC)C[C@H]2C[C@H]([C@@H](C)O)OC(=O)C[C@H](O)C[C@@H]3C[C@H](OC(C)=O)C(C)(C)[C@](O)(C[C@@H]4C/C(=C/C(=O)OC)C[C@H](/C=C/C(C)(C)[C@]1(O)O2)O4)O3 [BRYOSTATIN 1]
NCI-H727
  IC50: > 8 nM
EFM-19
  IC50: > 8 nM
8305C
  IC50: > 8 nM
NCI-H1693
  IC50: > 8 nM
SW1710
  IC50: > 8 nM
KYSE-180
  IC50: > 8 nM
HOS
  IC50: > 8 nM
NCI-H1437
  IC50: > 8 nM
RMG-I
  IC50: > 8 nM
SBC-5
  IC50: > 8 nM
NCI-H1651
  IC50: > 8 nM
DOK
  IC50: > 8 nM
IGR-1
  IC50: > 8 nM
A 172
  IC50: > 8 nM
BXPC-3
  IC50: > 8 nM
NCI-H460
  IC50: > 8 nM
NCI-H1963
  IC50: > 8 nM
NCI-H2347
  IC50: > 8 nM
KYSE-450
  IC50: > 8 nM
HGC-27
  IC50: > 8 nM
OVCAR-5
  IC50: > 8 nM
HCC1599
  IC50: > 8 nM
5637
  IC50: > 8 nM
HT-29
  IC50: > 8 nM
SK-MES-1
  IC50: > 8 nM
NCI-H2228
  IC50: > 8 nM
MHH-ES-1
  IC50: > 8 nM
SW1463
  IC50: > 8 nM
CAL-72
  IC50: > 8 nM
HT-1080
  IC50: > 8 nM
LB647-SCLC
  IC50: > 8 nM
LK-2
  IC50: > 8 nM
VMRC-RCZ
  IC50: > 8 nM
DBTRG-05MG
  IC50: > 8 nM
SCC-3
  IC50: > 8 nM
HSC-3
  IC50: > 8 nM
MDA-MB-415
  IC50: > 8 nM
SiHa
  IC50: > 8 nM
SIG-M5
  IC50: 1.56 nM
SNU-423
  IC50: > 8 nM
EFO-21
  IC50: > 8 nM
MG-63
  IC50: > 8 nM
MFE-280
  IC50: > 8 nM
YAPC
  IC50: > 0.008 µM

## COc1cccc2c1C(=O)c1c(O)c3c(c(O)c1C2=O)C[C@@](O)(C(=O)CO)C[C@@H]3O[C@H]1C[C@H](N)[C@H](O)[C@H](C)O1 [DOXORUBICIN]
NCI-H727
  IC50: 22.8 nM
EFM-19
  IC50: 478 nM
8305C
  IC50: 63.1 nM
NCI-H1693
  IC50: 290 nM
SW1710
  IC50: 17.4 nM
KYSE-180
  IC50: 59.8 nM
HOS
  IC50: 45.3 nM
NCI-H1437
  IC50: 64.6 nM
RMG-I
  IC50: 514 nM
SBC-5
  IC50: 20.7 nM
NCI-H1651
  IC50: 11.8 nM
DOK
  IC50: 1020 nM
IGR-1
  IC50: 33.9 nM
A 172
  IC50: 80.5 nM
BXPC-3
  IC50: 211 nM
NCI-H460
  IC50: 12.7 nM
NCI-H1963
  IC50: 430 nM
NCI-H2347
  IC50: 158 nM
KYSE-450
  IC50: 44.7 nM
HGC-27
  IC50: 13.6 nM
OVCAR-5
  IC50: 117 nM
HCC1599
  IC50: 72.5 nM
5637
  IC50: 31.9 nM
HT-29
  IC50: 36.6 nM
SK-MES-1
  IC50: 31.5 nM
NCI-H2228
  IC50: 13.5 nM
MHH-ES-1
  IC50: 21.6 nM
SW1463
  IC50: > 1020 nM
CAL-72
  IC50: 841 nM
HT-1080
  IC50: 14.8 nM
LB647-SCLC
  IC50: 123 nM
LK-2
  IC50: 581 nM
VMRC-RCZ
  IC50: 93.3 nM
DBTRG-05MG
  IC50: 67.1 nM
SCC-3
  IC50: 67.3 nM
HSC-3
  IC50: 74.5 nM
MDA-MB-415
  IC50: > 1020 nM
SiHa
  IC50: > 1020 nM
SIG-M5
  IC50: 25.7 nM
SNU-423
  IC50: 155 nM
EFO-21
  IC50: 362 nM
MG-63
  IC50: 22.1 nM
MFE-280
  IC50: > 1020 nM
YAPC
  IC50: > 1.02 µM

## Nc1ccn([C@@H]2O[C@H](CO)[C@@H](O)C2(F)F)c(=O)n1 [GEMCITABINE]
NCI-H727
  IC50: 2.51 nM
EFM-19
  IC50: > 1020 nM
8305C
  IC50: 9.64 nM
NCI-H1693
  IC50: 46.1 nM
SW1710
  IC50: < 4 nM
KYSE-180
  IC50: 12.8 nM
HOS
  IC50: < 4 nM
NCI-H1437
  IC50: 9.42 nM
RMG-I
  IC50: > 1020 nM
SBC-5
  IC50: < 4 nM
NCI-H1651
  IC50: 21.1 nM
DOK
  IC50: > 1020 nM
IGR-1
  IC50: 14.4 nM
A 172
  IC50: 24.7 nM
BXPC-3
  IC50: 36.9 nM
NCI-H460
  IC50: 13.5 nM
NCI-H1963
  IC50: > 1020 nM
NCI-H2347
  IC50: 792 nM
KYSE-450
  IC50: 6.32 nM
HGC-27
  IC50: 9.6 nM
OVCAR-5
  IC50: 306 nM
HCC1599
  IC50: 70.2 nM
5637
  IC50: > 1020 nM
HT-29
  IC50: < 4 nM
SK-MES-1
  IC50: < 4 nM
NCI-H2228
  IC50: < 4 nM
MHH-ES-1
  IC50: < 4 nM
SW1463
  IC50: 510 nM
CAL-72
  IC50: > 1020 nM
HT-1080
  IC50: 5.83 nM
LB647-SCLC
  IC50: 1.18 nM
LK-2
  IC50: > 1020 nM
VMRC-RCZ
  IC50: 1.54 nM
DBTRG-05MG
  IC50: 122 nM
SCC-3
  IC50: 89.6 nM
HSC-3
  IC50: 1.91 nM
MDA-MB-415
  IC50: > 1020 nM
SiHa
  IC50: > 1020 nM
SIG-M5
  IC50: < 4 nM
SNU-423
  IC50: 62.5 nM
EFO-21
  IC50: 53.7 nM
MG-63
  IC50: 1.33 nM
MFE-280
  IC50: > 1020 nM
YAPC
  IC50: > 1.02 µM

## O=C(O)c1ccc(-c2c[nH]c3ncc(-c4ccccc4)cc23)cc1C1CCCC1 [GSK-650394]
NCI-H727
  IC50: > 16000 nM
EFM-19
  IC50: > 16000 nM
8305C
  IC50: > 16000 nM
NCI-H1693
  IC50: > 16000 nM
SW1710
  IC50: 2700 nM
KYSE-180
  IC50: 2060 nM
HOS
  IC50: 1970 nM
NCI-H1437
  IC50: 6130 nM
RMG-I
  IC50: > 16000 nM
SBC-5
  IC50: 14900 nM
NCI-H1651
  IC50: > 16000 nM
DOK
  IC50: > 16000 nM
IGR-1
  IC50: 4230 nM
A 172
  IC50: > 16000 nM
BXPC-3
  IC50: > 16000 nM
NCI-H460
  IC50: 3400 nM
NCI-H1963
  IC50: > 16000 nM
NCI-H2347
  IC50: > 16000 nM
KYSE-450
  IC50: 5600 nM
HGC-27
  IC50: 1310 nM
OVCAR-5
  IC50: > 16000 nM
HCC1599
  IC50: > 16000 nM
5637
  IC50: 3210 nM
HT-29
  IC50: 7270 nM
SK-MES-1
  IC50: 16000 nM
NCI-H2228
  IC50: 4640 nM
MHH-ES-1
  IC50: 13600 nM
SW1463
  IC50: > 16000 nM
CAL-72
  IC50: > 16000 nM
HT-1080
  IC50: 5490 nM
LB647-SCLC
  IC50: 7930 nM
LK-2
  IC50: > 16000 nM
VMRC-RCZ
  IC50: > 16000 nM
DBTRG-05MG
  IC50: > 16000 nM
SCC-3
  IC50: > 16000 nM
HSC-3
  IC50: > 16000 nM
MDA-MB-415
  IC50: > 16000 nM
SiHa
  IC50: > 16000 nM
SIG-M5
  IC50: 4880 nM
SNU-423
  IC50: > 16000 nM
EFO-21
  IC50: > 16000 nM
MG-63
  IC50: > 16000 nM
MFE-280
  IC50: > 16000 nM
YAPC
  IC50: > 16 µM

## COC1=CC(c2cc3ccccc3[nH]2)=N/C1=C\c1[nH]c(C)cc1C [OBATOCLAX MESYLATE]
NCI-H727
  IC50: 80.5 nM
EFM-19
  IC50: 124 nM
8305C
  IC50: 180 nM
NCI-H1693
  IC50: 2000 nM
SW1710
  IC50: 40.2 nM
KYSE-180
  IC50: 61.4 nM
HOS
  IC50: 34.7 nM
NCI-H1437
  IC50: 408 nM
RMG-I
  IC50: 782 nM
SBC-5
  IC50: 212 nM
NCI-H1651
  IC50: 497 nM
DOK
  IC50: 848 nM
IGR-1
  IC50: < 62.5 nM
A 172
  IC50: 887 nM
BXPC-3
  IC50: 74.6 nM
NCI-H460
  IC50: 101 nM
NCI-H1963
  IC50: 1050 nM
NCI-H2347
  IC50: 888 nM
KYSE-450
  IC50: < 62.5 nM
HGC-27
  IC50: < 62.5 nM
OVCAR-5
  IC50: 311 nM
HCC1599
  IC50: 500 nM
5637
  IC50: 83.7 nM
HT-29
  IC50: 44.9 nM
SK-MES-1
  IC50: 129 nM
NCI-H2228
  IC50: 893 nM
MHH-ES-1
  IC50: 186 nM
SW1463
  IC50: 1320 nM
CAL-72
  IC50: 534 nM
HT-1080
  IC50: 511 nM
LB647-SCLC
  IC50: 15700 nM
LK-2
  IC50: 50.6 nM
VMRC-RCZ
  IC50: 403 nM
DBTRG-05MG
  IC50: 2060 nM
SCC-3
  IC50: 446 nM
HSC-3
  IC50: < 62.5 nM
MDA-MB-415
  IC50: 2180 nM
SiHa
  IC50: 3120 nM
SIG-M5
  IC50: < 62.5 nM
SNU-423
  IC50: 129 nM
EFO-21
  IC50: 841 nM
MG-63
  IC50: 214 nM
MFE-280
  IC50: 963 nM
YAPC
  IC50: 5.99 µM
